Results from US20030206882A1, “Fatty acid sanitizer” (priority 2002, published 2003).

How the values were obtained:
[1] = test system: Staphylococcus aureus ATCC 6538; assay: Sanitizing Efficacy/Germicidal and Detergent Sanitizing Action of Disinfectants; assay type: cell-based; details: summary of Table 7, heptanoic acid without coupler
Protocol: Sanitizing Efficacy/Germicidal and Detergent Sanitizing Action of Disinfectants—Final Action
This test measures the sanitizing efficacy against Staphylococcus aureus ATCC 6538 and Escherichia coli ATCC 11229 with a 10% milk challenge at a 15 second exposure time. A 10% milk challenge is achieved by adding 90 ml of the test formulation to 10 ml of milk, mixing, and removing 1 ml for a final volume of 99 ml.

[2] = Compatibility/stability of the aqueous composition; assay type: physicochemical; details: heptanoic acid alone versus with sulfonate coupler

compatibility (stability) of the composition (in words) [2]: less compatibility
Compound: CCCCCCC(=O)O [heptanoic acid]
antimicrobial efficacy (in words) [1]: satisfactory antimicrobial efficacy
